≈ marks a conversion by molar mass, not a printed value.
Experiments:
Format in all cases: cell-based
[1] = system: A. baumannii SR27323; assay: MIC, CLSI broth microdilution, cation-adjusted Mueller Hinton broth with human apo-transferrin (Test Example 1); conditions: inoculum 5×10^5 cfu/mL; for Minimum Inhibitory Concentration (MIC) A. baumannii SR27323: Table 2, OXA-23, OXA-58 carbapenemase producing strain; for MIC: Acinetobacter baumannii, SR27323, Table 2, OXA-23, OXA-58 carbapenemase producing strain, read-out: Minimum Inhibitory Concentration (MIC) A. baumannii SR27323
Description: (§1) Measurement of Minimum Inhibitory Concentration (MIC: μg/mL) was conducted according to CLSI (Clinical and Laboratory Standards Institute) method, and the amount of bacteria for inoculation was 5×10^5 cfu/mL, and cation-adjusted Mueller Hinton broth containing human apo-transferrin was used as a test medium, and the experiment was conducted using broth microdilution method. The bacteria used are listed below.

[2] = system: E. coli ATCCBAA-199; assay: as above; conditions: inoculum 5×10^5 cfu/mL; for MIC: Escherichia coli, ATCCBAA199, Table 2, SHV-3 ESBL producing strain, read-out: Minimum Inhibitory Concentration (MIC) E. coli ATCC BAA-199
Description: as §1

[3] = system: E. coli ATCCBAA-200; assay: as above; conditions: inoculum 5×10^5 cfu/mL; for MIC: Escherichia coli, ATCCBAA200, Table 2, SHV-4 ESBL producing strain, read-out: Minimum Inhibitory Concentration (MIC) E. coli ATCC BAA-200
Description: as §1

[4] = system: K. pneumoniae ATCCBAA-1705; assay: as above; conditions: inoculum 5×10^5 cfu/mL; for MIC: Klebsiella pneumoniae, ATCCBAA1705, Table 2, KPC-2 carbapenemase producing strain, read-out: Minimum Inhibitory Concentration (MIC) K. pneumoniae ATCC BAA-1705
Description: as §1

[5] = system: P. aeruginosa SR24; assay: as above; conditions: no enzyme, inoculum 5×10^5 cfu/mL; for Minimum Inhibitory Concentration (MIC) P. aeruginosa SR24: Table 2, ceftazidime resistance strain; for MIC: Pseudomonas aeruginosa, SR24, Table 2, ceftazidime resistance strain, read-out: Minimum Inhibitory Concentration (MIC) P. aeruginosa SR24
Description: as §1

[6] = system: P. aeruginosa SR27060; assay: as above; conditions: inoculum 5×10^5 cfu/mL; for MIC: Pseudomonas aeruginosa, SR27060, Table 2, IMP-1 MBL producing strain (carbapenem resistance strain), read-out: Minimum Inhibitory Concentration (MIC) P. aeruginosa SR27060
Description: as §1

[7] = system: E. cloacae NCTC13464; assay: MIC, CLSI broth microdilution, cation-adjusted iso-sensitest broth with human apo transferrin (Test Example 2); conditions: Enterobacter cloacae, Table 5, CTX-M group 9 ESBL producing strain, inoculum 5×10^5 cfu/mL, read-out: Minimum Inhibitory Concentration (MIC) E. cloacae NCTC 13464
Description: as §1, with “iso-sensitest” for “Mueller Hinton”, “apo transferrin” for “apo-transferrin”

[8] = system: E. coli ATCCBAA-196; assay: as above; conditions: Escherichia coli, ATCCBAA196, Table 5, TEM-10 ESBL producing strain, inoculum 5×10^5 cfu/mL, read-out: Minimum Inhibitory Concentration (MIC) E. coli ATCC BAA-196
Description: as §1, with “iso-sensitest” for “Mueller Hinton”, “apo transferrin” for “apo-transferrin”

[9] = system: E. coli ATCCBAA-200; assay: as above; conditions: Escherichia coli, ATCCBAA200, Table 5, SHV-4 ESBL producing strain, inoculum 5×10^5 cfu/mL, read-out: Minimum Inhibitory Concentration (MIC) E. coli ATCC BAA-200
Description: as §1, with “iso-sensitest” for “Mueller Hinton”, “apo transferrin” for “apo-transferrin”

| Minimum Inhibitory Concentration (MIC) A. baumannii SR27323 [1] | Minimum Inhibitory Concentration (MIC) E. coli ATCC BAA-199 ([2]; Table 2, SHV-3 ESBL producing strain) | Minimum Inhibitory Concentration (MIC) E. coli ATCC BAA-200 ([3]; Table 2, SHV-4 ESBL producing strain) | Minimum Inhibitory Concentration (MIC) K. pneumoniae ATCC BAA-1705 ([4]; Table 2, KPC-2 carbapenemase producing strain) | Minimum Inhibitory Concentration (MIC) P. aeruginosa SR24 [5] [µg/mL] | Minimum Inhibitory Concentration (MIC) P. aeruginosa SR27060 ([6]; Table 2, IMP-1 MBL producing strain (carbapenem resistance strain)) [μg/ml] | MIC [1] [µg/mL] | MIC [2] [µg/mL] | MIC [3] [µg/mL] | MIC [4] [µg/mL] | MIC [5] [µg/mL] | MIC [6] [µg/mL] | MIC [7] [µg/mL] | MIC [8] [µg/mL] | MIC [9] [µg/mL] | Compound |
| --- | --- | --- | --- | --- | --- | --- | --- | --- | --- | --- | --- | --- | --- | --- | --- |
| 1 µg/mL | ≦0.031 μg/ml | ≦0.031 μg/ml | ≦0.031 μg/ml | 0.25 | 1. |  |  |  |  |  |  |  |  |  | CC(C)(O/N=C(\C(=O)N[C@@H]1C(=O)N2C(c3nnn[n-]3)=C(CSc3cc[n+](Cc4ccc(O)c(O)c4)cc3)CS[C@H]12)c1csc(N)n1)C(=O)O [Compound I-1] |
|  |  |  |  |  |  | 2 (≈ 2.64 µM) | 0.063 (≈ 0.0832 µM) | 0.25 (≈ 0.33 µM) | ≤ 0.031 | 0.25 (≈ 0.33 µM) | 16 (≈ 21.1 µM) |  |  |  | C[C@H](O/N=C(\C(=O)N[C@@H]1C(=O)N2C(c3nnn[n-]3)=C(CSc3cc[n+](CC(=O)c4ccc(O)c(O)c4)cc3)CO[C@H]12)c1nc(N)sc1Cl)C(=O)O [Compound I-8] |
|  |  |  |  |  |  | 0.5 (≈ 0.686 µM) | 1 (≈ 1.37 µM) | 2 (≈ 2.74 µM) | 0.25 (≈ 0.343 µM) | 0.25 (≈ 0.343 µM) | > 32 |  |  |  | CC(C)(O/N=C(\C(=O)N[C@@H]1C(=O)N2C(C(=O)[O-])=C(CSc3cc[n+](CC(=O)c4ccc(O)c(O)c4)cc3)CS[C@H]12)c1csc(N)n1)C(=O)O [Comparative Compound 1, reference compound] |
|  |  |  |  |  |  |  |  |  |  |  |  | 0.063 | 0.125 | 0.125 | CC(C)(O/N=C(\C(=O)N[C@@H]1C(=O)N2C(c3nnn[n-]3)=C(CSc3cc[n+](-c4ccc(O)c(O)c4Cl)cc3)CS[C@H]12)c1nsc(N)n1)C(=O)[O-].[Na+] [Compound I-17] |
|  |  |  |  |  |  | 0.125 (≈ 0.176 µM) | ≤ 0.031 | ≤ 0.031 | ≤ 0.031 | 0.063 (≈ 0.0886 µM) |  |  |  |  | CC(C)(O/N=C(\C(=O)N[C@@H]1C(=O)N2C(c3nnn[n-]3)=C(CSc3cc[n+](-c4ccc(O)c(O)c4)cc3)CS[C@H]12)c1csc(N)n1)C(=O)O [Compound I-6] |
|  |  |  |  |  |  |  |  |  |  |  |  | 0.125 | ≤ 0.031 | ≤ 0.031 | CC(C)(O/N=C(\C(=O)N[C@@H]1C(=O)N2C(c3nnn[n-]3)=C(CSc3cc[n+](CC(=O)c4ccc(O)c(O)c4Cl)cc3)CS[C@H]12)c1nc(N)sc1Cl)C(=O)[O-].[Na+] [Compound I-15] |
| ≦0.031 μg/ml |  |  |  | 0.063 |  |  | ≤ 0.031 | ≤ 0.031 | ≤ 0.031 |  | 0.5 (≈ 0.69 µM) |  |  |  | CC(C)(O/N=C(\C(=O)N[C@@H]1C(=O)N2C(c3nnn[n-]3)=C(CSc3cc[n+](Cc4ccc(O)c(O)c4)cc3)CS[C@H]12)c1csc(N)n1)C(=O)O [Compound I-2] |
|  |  |  |  |  |  | 1 (≈ 1.33 µM) | 0.125 (≈ 0.166 µM) | 0.25 (≈ 0.332 µM) | ≤ 0.031 | 0.125 (≈ 0.166 µM) | 2 (≈ 2.65 µM) |  |  |  | CC(C)(O/N=C(\C(=O)N[C@@H]1C(=O)N2C(c3nnn[n-]3)=C(CSc3cc[n+](CC(=O)c4ccc(O)c(O)c4)cc3)CS[C@H]12)c1nsc(N)n1)C(=O)O [Compound I-4] |
|  |  |  |  |  |  | 2 (≈ 2.6 µM) | ≤ 0.031 | ≤ 0.031 | ≤ 0.031 | 0.5 (≈ 0.65 µM) | 4 (≈ 5.2 µM) |  |  |  | CC(C)(O/N=C(\C(=O)N[C@@H]1C(=O)N2C(c3nnn[n-]3)=C(CSc3cc[n+](CC(=O)c4ccc(O)c(O)c4)cc3)C[S+]([O-])[C@H]12)c1csc(N)n1)C(=O)O (some centres unmarked) [Compound I-7] |
|  |  |  |  |  |  | 0.5 (≈ 0.647 µM) | ≤ 0.031 | 0.063 (≈ 0.0815 µM) | ≤ 0.031 | 0.125 (≈ 0.162 µM) | 1 (≈ 1.29 µM) |  |  |  | C[C@H](O/N=C(\C(=O)N[C@@H]1C(=O)N2C(c3nnn[n-]3)=C(CSc3cc[n+](CC(=O)c4ccc(O)c(O)c4)cc3)CS[C@H]12)c1nc(N)sc1Cl)C(=O)O [Compound I-5] |

— patent publication US9242999B2, “Cephem compound having pyridinium group” (priority 2011, dated 2016)
